Assay results: patent US5438073A, “Dermatological and/or cosmetological composition containing retinoids” (Pierre Fabre Cosmetique, priority 1991, dated 1995)
Like-named read-outs stand apart in the source and are kept apart here. Values belong to the molecule of their own block, whether it stands above or below them.

Key:
[1] = test system: cytosol extracts of human keratinocytes; details: human epidermal cells; specific inhibitors of alcohol metabolism or excess of ethanol
Method: We have measured the conversion of retinol to retinoic acid. We have also measured the enzymatic oxidation-reduction of retinal in human epidermal cell extracts in vitro (HPLC analysis of the products obtained by incubation of cytosol extracts with ^3 H-labeled RAL and ROL).
(§1) The HPLC analyses of the retinoids are carried out by the following technique:
(§2) A 100 μl aliquot of the cytosol fraction of keratinocytes is incubated with 600 μM (^3 H) retinol or (^3 H) retinal for 1 hour.
(§3) 5 μl of internal standard solution containing 4-oxoretinoic acid, all-trans-retinoic acid, 13-cis-retinoic acid, retinol and retinal are subsequently added to the reaction medium.
(§4) The radioactive material is then extracted with 3×1 ml of hexane.
(§5) The organic phase is collected and completely evaporated using a stream of nitrogen gas.
(§6) The residue is subsequently taken up in 50 μl of acetonitrile and analysed on an HPLC column.
(§7) The HPLC system consists of a VARIAN 5000 apparatus equipped with an ODS-Ultrasyl reverse-phase column (10 μm, 25×0.4 cm).
(§8) The unlabeled retinoids are detected by their absorbance measured at 340 nm. 600 μl fractions are also collected using a fraction collector, and their radio-activity is measured with a scintillation counter after adding 4 ml of Pico-fluor.

rosacea = assay: application in the case of rosacea; assay type: in vivo, human; details: 0.1% retinal, topical, daily
Method: This test was carried out on 10 subjects displaying the clinical signs of rosacea. A topical application containing 0.1% of retinal was used in daily application for 3 months.

psoriasis plaques = details: for regression of the lesion score: with occlusion
Method: For this reason, the 1% preparation was used and the effects of a daily application were compared with those of the excipient, in 12 patients.
The application was "open" in 6 cases, and with occlusion in six 6. 11 cases were able to be evaluated (5 with occlusion, 6 open). The effect was measured by standard methods (erythema 0-3, squama 0-3, infiltration 0-3), comparing the plaques treated with retinal with the symmetrical plaques treated with the excipients. Photographs were taken at each inspection.

seborrheic dermatitis = assay: application in the case of seborrheic dermatitis; assay type: in vivo, human; details: 0.05% retinal, topical, daily; after treatment for one month
Method: This test was carried out on 10 subjects displaying the clinical signs of seborrheic dermatitis.
A topical application containing 0.05% of retinal was used in daily application for one month.

normal human skin [2] = test system: normal human skin
Excerpt: This test, carried out on 30 healthy volunteers, was intended to evaluate the existance of a biological effect and the tolerance after topical application of retinal.
Three concentrations, 1.0%, 0.1% and 0.05%, were used, in daily covered applications for at least 15 days and up to 3 months in 10 subjects.

[3] = test system: human epidermal cell extracts
Method: (§9) We have also measured the enzymatic oxidation-reduction of retinal in human epidermal cell extracts in vitro (HPLC analysis of the products obtained by incubation of cytosol extracts with ^3 H-labeled RAL and ROL).
as §1, §2, §3, §4, §5, §6, §7
(§10) The isocratic elution system consists of a mixture of solvents composed of 71% acetonitrile, 23% of ammonium acetate buffer (50 mM, pH 7) and 6% tetrahydrofuran, with a flow rate of 2.4 ml/min.
as §8

[4] = test system: extracts of normal human skin and of the psoriasis plaque
Method: as §9, §1, §2, §3, §4, §5, §6, §7, §10, §8

normal human skin [5] = details: topically applied; cited from earlier work
[6] = test system: protein extract of psoriasis plaques / cytosol extracts of normal human skin; assay type: in vitro ADME
Excerpt: Furthermore, the Applicant has shown that the protein extract of psoriasis plaques was also capable of converting retinol to retinoic acid, but with a lower activity (0.33+0.07 pmol/h/mg) than differentiated keratinocytes.
These differences in the conversion activity may be attributed to the differences in biological activity of the tissues studied or to their different state of differentiation.

SMILES: Cc1cn[nH]c1 [4-methylpyrazole]
effect on the production of retinoic acid from retinol [1]: not affected

SMILES: CCN(CC)C(=S)SSC(=S)N(CC)CC [disulfiram]
effect on the production of retinoic acid from retinol [1]: not affected

SMILES: CCO [ethanol]
effect on the production of retinoic acid from retinol [1]: not affected

skin coloration induced (normal human skin [2]; in vivo): yellowish coloration
oxidation of retinal [3]: 51.6 pmol/h/mg
oxidation of retinal to retinoic acid [4]: 1.35 ± 0.4 pmol/h/mg
SMILES: CC1=C(/C=C/C(C)=C/C=C/C(C)=C/C=O)C(C)(C)CCC1 [retinal]
subjects left with almost no sign of characteristic erythrosis of rosacea (rosacea; after treatment for 3 months): 70%
cases with a substantial improvement in the rosacea (rosacea; from the first month, 10 subjects): 6 of the 10
effect on psoriasis plaques (psoriasis plaques; 0.1% and 0.05% preparations, initial pilot study): only a modest effect
effect on the action of UVA (psoriasis plaques; 0.1% and 0.05% preparations, psoriasis plaques): potentiating effect
results in the open series (psoriasis plaques; 1% preparation, daily, open application, 6 cases): only one very good result was noted, with one good and four modest results
regression of the lesion score (psoriasis plaques; 1% preparation, daily, 3 of the 5 cases, from the first week): more than 50%
regression of the lesion score (psoriasis plaques; 1% preparation, daily, one case (good result)): 30%
regression of the lesion score (psoriasis plaques; 1% preparation, daily, one case (modest result)): 10%
local reaction on the psoriasis plaque (psoriasis plaques; in vivo): inflammation specifically localized on the psoriasis plaque
subjects left with almost no characteristic signs of seborrheic dermatitis (seborrheic dermatitis): 80%
biological effect on normal skin (normal human skin [2]; 0.1% and 0.05% preparations, topical, healthy volunteers): better appearance of the skin
cases in which an irritation arose (normal human skin [2]; in vivo): 10%
irritation / dermatitis caused by the retinoids (normal human skin [2]; in vivo): no irritation was noted
tolerability (normal human skin [2]; in vivo): excellent

SMILES: CC1=C(/C=C/C(C)=C/C=C/C(C)=C/C(=O)O)C(C)(C)CCC1 [retinoic acid]
topical concentration at which dermatitis caused by the retinoids is observed (normal human skin [5]): ≥ 0.01%

activity of converting retinol to retinoic acid [6]: 0.33+0.07 pmol/h/mg
conversion of retinol to retinoic acid [6]: no measurable degree of conversion
SMILES: CC1=C(/C=C/C(C)=C/C=C/C(C)=C/CO)C(C)(C)CCC1 [retinol]
